system: rekombinante Oxidoreduktase aus Metschnikowia zobellii; assay: not given; assay type: biochemical; conditions: not given

| Structure (SMILES) | des eingesetzten Substrats reduziert |
| --- | --- |
| CCOC(=O)CCCCC(=O)CCCl [8-Chlor-6-oxo-octansäure-ethylester] | 55% |
| CCOC(=O)C(=O)CCc1ccccc1 [Ethyl-2-oxo-4-phenyl-buttersäure] | 92% |
| CCOC(=O)C(=O)c1ccccc1 [Ethylphenylglyoxylat] | 50% |

same assay, conditions: Nach 48 h; 25 °C; two-phase system

| Structure (SMILES) | des eingesetzten Substrats reduziert |
| --- | --- |
| O=C(CCl)c1ccccc1 [2-Chlor-1-phenyl-ethan-1-on] | 75% |

system: Oxidoreduktase aus Metschnikowia zobellii; assay: Substrate spectrum (relative enzyme activity, standard assay of Example 5.1); assay type: biochemical; conditions: not given

| Structure (SMILES) | Relative Aktivität % |
| --- | --- |
| O=C(CCl)CCCl [1,4-Dichlor-butan-2-on] | 27% |
| CC(=O)Cc1ccccc1 [1-Phenyl-2-propanon] | 15% |
| O=C(CCl)c1cccc(Cl)c1 [2-chlor-1-(3-chlor-pheny)-ethan-1-on] | 5% |
| CCOC(=O)CC(=O)CCl [4-Chloracetessigsäureethylester] | 100% |
| CCC(C)=O [Butan-2-on] | 0% |
| O=C1CCCCC1 [Cyclohexanon] | 3% |

same assay, conditions: activity with 2-Oxo-4-phenyl-buttersäureethylester set to 100%; NADPH; 25 °C

| Structure (SMILES) | Relative Aktivität % |
| --- | --- |
| CC1CCCCC1=O (stereo not shown) [2-Methylcyclohexanon] | 8% |
| CCOC(=O)C1CCCCC1=O (stereo not shown) [2-Oxo-cyclohexan-carbonsäure-ethylester] | 20% |
| CCOC(=O)C1CCCC1=O (stereo not shown) [2-Oxo-cyclopentan carbonsäure-ethylester] | 8% |
| CC1CCCC(=O)C1 (stereo not shown) [3-Methylcyclohexanon] | 8% |
| COC(=O)CCCCC(=O)CC(=O)OC [3-Oxo-1,8-octandisäure-dimethylester] | 35% |
| CCOC(=O)CCCCC(=O)CCCl [8-Chlor-6-oxo-octansäure-ethylester] | 50% |
| CCOC(=O)C(=O)c1ccccc1Cl [(2-chlorphenyl)-oxo-essigsäure ethylester] | 50% |
| CC(=O)c1ccccc1 [Acetophenon] | 0% |
| CCCCCCCC(=O)c1ccccc1 [Caprylophenon] | 0% |
| CCOC(=O)C(=O)CCc1ccccc1 [Ethyl-2-oxo-4-phenyl-buttersäure] | 100% |
| CCCC(=O)C(=O)OCC [Ethyl-2-oxovaleriansäure] | 100% |
| CCOC(=O)C(=O)c1ccccc1 [Ethylphenylglyoxylat] | 50% |
